The NIST ThermoML archive (doi:10.1016/j.fluid.2014.01.038)

Assay: mn = molality of the nth substance listed, in mol/kg
Details: 288.15 K, 101 kPa, Liquid, Pycnometric method

CC(C)C[C@H](NC(=O)CN)C(=O)O [glycyl-L-leucine] + O
Details | mass density [kg/m3]
m1 = 0.03301 | 1000.8
m1 = 0.04936 | 1001.65
m1 = 0.05894 | 1002.14
m1 = 0.06889 | 1002.67
m1 = 0.07838 | 1003.17
m1 = 0.08821 | 1003.69
m1 = 0.09745 | 1004.12

CC(C)[C@H](NC(=O)CN)C(=O)O [glycyl-L-valine] + O
Details | mass density [kg/m3]
m1 = 0.04051 | 1001.29
m1 = 0.08097 | 1003.45
m1 = 0.1203 | 1005.55
m1 = 0.1403 | 1006.63
m1 = 0.1594 | 1007.68
m1 = 0.1799 | 1008.79
m1 = 0.1995 | 1009.84

NCC(=O)NCC(=O)O [glycylglycine] + O
Details | mass density [kg/m3]
m1 = 0.06148 | 1002.65
m1 = 0.09135 | 1004.36
m1 = 0.1538 | 1007.96
m1 = 0.1823 | 1009.6
m1 = 0.2128 | 1011.36
m1 = 0.2534 | 1013.73
m1 = 0.3028 | 1016.61
